Data taken from PMC6917776, “Discovery of a chemical probe for PRDM9” (Nature Communications, 2019).

Tests used:
Experiment in all cases: DSF thermal stabilisation, PRDM selectivity
Assay type in all cases: binding
Settings in all cases: 250 µM MRK-740; 2 mM SAM
PRDM1 = PRDM1 (Homo sapiens, UniProt O75626)
Description: (§1) DSF measurements were performed as previously described[21] using a Light Cycler 480 II instrument from Roche Applied Science. All proteins tested in these selectivity experiments were used at final concentration of 0.02 mg mL^−1 in a 0.1 M HEPES, pH 7.5 and 150 mM NaCl buffer in the presence of 2 mM SAM. Sypro Orange was purchased from Invitrogen as a 5000 × stock solution (concentration not specified by vendor) and was diluted 1:1000 to yield a 5 × working concentration. The temperature scan curves were fitted to a Boltzmann sigmoid function, and the Tm values were obtained from the midpoint of the transition.

PRDM10 = PRDM10 (Homo sapiens, UniProt Q9NQV6)
Description: as §1

PRDM11 = PRDM11 (Homo sapiens, UniProt Q9NQV5)
Chain of PRDM11 (Q9NQV5 whole entry): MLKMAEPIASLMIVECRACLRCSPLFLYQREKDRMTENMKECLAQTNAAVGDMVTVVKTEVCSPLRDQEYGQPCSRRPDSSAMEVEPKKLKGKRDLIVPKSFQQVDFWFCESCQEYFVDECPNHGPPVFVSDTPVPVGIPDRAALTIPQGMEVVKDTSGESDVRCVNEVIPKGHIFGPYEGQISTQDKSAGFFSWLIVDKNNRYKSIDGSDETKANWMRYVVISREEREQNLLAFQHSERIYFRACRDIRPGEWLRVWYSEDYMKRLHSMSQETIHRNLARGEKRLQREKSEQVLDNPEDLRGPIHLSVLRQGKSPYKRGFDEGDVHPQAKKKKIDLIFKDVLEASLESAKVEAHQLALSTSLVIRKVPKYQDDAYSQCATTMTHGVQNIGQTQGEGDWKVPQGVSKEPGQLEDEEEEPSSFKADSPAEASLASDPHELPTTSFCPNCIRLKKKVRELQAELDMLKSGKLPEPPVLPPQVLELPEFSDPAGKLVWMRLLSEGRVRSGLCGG
Description: as §1

PRDM12 = PRDM12 (Homo sapiens, UniProt Q9H4Q4)
Chain of PRDM12 (Q9H4Q4 whole entry): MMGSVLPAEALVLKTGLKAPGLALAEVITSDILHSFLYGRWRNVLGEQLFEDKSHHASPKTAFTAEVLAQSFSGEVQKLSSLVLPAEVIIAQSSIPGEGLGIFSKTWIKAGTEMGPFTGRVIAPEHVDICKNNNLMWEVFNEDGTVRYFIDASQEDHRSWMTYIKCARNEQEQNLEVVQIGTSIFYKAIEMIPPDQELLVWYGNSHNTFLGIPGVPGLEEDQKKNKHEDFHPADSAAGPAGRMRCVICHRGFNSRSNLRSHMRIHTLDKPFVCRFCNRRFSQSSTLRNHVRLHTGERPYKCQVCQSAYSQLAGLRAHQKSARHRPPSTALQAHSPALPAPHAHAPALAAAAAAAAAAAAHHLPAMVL
Description: as §1

PRDM13 = PRDM13 (Homo sapiens, UniProt Q9H4Q3)
Chain of PRDM13 (Q9H4Q3 whole entry): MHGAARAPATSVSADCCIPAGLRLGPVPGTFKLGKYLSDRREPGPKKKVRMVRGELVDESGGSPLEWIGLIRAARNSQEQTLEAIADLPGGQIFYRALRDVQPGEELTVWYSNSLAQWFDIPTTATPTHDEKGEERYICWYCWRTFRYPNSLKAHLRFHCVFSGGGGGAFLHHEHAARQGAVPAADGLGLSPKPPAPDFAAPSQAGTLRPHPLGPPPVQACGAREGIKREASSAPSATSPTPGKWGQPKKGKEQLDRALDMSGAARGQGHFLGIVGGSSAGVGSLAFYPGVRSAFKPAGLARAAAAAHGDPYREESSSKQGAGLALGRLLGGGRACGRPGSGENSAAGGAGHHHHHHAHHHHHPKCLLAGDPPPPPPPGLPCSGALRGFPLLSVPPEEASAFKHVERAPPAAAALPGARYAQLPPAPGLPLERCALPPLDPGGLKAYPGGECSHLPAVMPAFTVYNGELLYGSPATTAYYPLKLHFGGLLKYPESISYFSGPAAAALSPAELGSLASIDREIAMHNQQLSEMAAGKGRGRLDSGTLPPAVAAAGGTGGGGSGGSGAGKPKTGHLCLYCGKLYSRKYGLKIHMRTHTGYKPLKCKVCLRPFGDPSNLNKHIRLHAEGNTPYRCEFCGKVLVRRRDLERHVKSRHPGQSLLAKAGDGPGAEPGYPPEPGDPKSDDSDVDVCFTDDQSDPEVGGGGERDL
Description: as §1

PRDM14 = PRDM14 (Homo sapiens, UniProt Q9GZV8)
Chain of PRDM14 (Q9GZV8 whole entry): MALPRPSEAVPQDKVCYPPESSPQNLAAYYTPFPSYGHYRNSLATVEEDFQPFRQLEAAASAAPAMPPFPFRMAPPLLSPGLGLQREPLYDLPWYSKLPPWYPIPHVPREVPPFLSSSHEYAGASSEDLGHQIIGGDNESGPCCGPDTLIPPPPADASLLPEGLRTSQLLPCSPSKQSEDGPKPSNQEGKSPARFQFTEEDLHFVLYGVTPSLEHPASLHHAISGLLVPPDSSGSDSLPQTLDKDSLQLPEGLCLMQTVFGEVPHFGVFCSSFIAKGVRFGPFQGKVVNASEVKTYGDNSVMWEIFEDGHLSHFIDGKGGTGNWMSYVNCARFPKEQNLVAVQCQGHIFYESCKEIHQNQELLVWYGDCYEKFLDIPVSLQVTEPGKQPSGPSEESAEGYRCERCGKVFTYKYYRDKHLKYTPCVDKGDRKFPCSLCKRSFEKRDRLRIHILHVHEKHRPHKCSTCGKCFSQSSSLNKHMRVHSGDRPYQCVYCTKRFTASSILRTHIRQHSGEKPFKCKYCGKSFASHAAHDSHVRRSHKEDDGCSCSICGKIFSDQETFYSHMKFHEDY
Description: as §1

PRDM16 = PRDM16 (Homo sapiens, UniProt Q9HAZ2)
Chain of PRDM16 (Q9HAZ2 whole entry): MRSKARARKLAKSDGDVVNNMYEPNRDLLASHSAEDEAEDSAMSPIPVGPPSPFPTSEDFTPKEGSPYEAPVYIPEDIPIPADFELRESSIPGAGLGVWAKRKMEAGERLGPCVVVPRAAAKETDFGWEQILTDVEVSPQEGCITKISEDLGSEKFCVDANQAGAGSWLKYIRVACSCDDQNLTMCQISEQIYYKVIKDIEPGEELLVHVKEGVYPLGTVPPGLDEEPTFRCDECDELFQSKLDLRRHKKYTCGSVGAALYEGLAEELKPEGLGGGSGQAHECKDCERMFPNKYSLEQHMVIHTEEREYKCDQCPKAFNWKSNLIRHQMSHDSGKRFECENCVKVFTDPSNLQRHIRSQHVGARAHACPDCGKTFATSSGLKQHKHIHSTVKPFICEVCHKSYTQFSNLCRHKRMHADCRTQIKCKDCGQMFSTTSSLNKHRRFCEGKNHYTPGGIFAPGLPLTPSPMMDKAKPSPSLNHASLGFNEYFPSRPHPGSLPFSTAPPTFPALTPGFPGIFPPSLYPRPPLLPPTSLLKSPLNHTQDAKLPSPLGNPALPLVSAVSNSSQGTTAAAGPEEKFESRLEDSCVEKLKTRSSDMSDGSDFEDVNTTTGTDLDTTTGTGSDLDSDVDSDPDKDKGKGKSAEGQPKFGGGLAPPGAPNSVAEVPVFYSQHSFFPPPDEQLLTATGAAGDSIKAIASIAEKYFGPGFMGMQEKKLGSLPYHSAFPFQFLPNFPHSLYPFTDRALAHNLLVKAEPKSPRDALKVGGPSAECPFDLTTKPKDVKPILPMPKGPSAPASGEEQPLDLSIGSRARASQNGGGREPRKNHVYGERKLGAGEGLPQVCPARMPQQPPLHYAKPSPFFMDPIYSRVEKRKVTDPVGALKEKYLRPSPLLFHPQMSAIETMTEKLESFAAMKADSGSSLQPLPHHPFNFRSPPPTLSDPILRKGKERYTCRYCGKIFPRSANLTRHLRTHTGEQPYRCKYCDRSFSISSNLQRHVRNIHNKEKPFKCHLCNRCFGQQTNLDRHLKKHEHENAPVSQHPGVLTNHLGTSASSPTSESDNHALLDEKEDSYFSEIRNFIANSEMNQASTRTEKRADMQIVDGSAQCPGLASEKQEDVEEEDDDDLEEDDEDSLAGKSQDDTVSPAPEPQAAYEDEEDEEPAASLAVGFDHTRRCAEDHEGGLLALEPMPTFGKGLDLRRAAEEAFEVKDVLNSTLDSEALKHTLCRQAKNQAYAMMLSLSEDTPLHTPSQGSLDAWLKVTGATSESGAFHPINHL
Description: as §1

PRDM2 = PRDM2 (Homo sapiens, UniProt Q13029)
Description: as §1

PRDM3 = PRDM3 (Homo sapiens, UniProt Q03112)
Description: as §1

PRDM6 = PRDM6 (Homo sapiens, UniProt Q9NQX0)
Description: as §1

PRDM8 = PRDM8 (Homo sapiens, UniProt Q9NQV8)
Chain of PRDM8 (Q9NQV8 whole entry): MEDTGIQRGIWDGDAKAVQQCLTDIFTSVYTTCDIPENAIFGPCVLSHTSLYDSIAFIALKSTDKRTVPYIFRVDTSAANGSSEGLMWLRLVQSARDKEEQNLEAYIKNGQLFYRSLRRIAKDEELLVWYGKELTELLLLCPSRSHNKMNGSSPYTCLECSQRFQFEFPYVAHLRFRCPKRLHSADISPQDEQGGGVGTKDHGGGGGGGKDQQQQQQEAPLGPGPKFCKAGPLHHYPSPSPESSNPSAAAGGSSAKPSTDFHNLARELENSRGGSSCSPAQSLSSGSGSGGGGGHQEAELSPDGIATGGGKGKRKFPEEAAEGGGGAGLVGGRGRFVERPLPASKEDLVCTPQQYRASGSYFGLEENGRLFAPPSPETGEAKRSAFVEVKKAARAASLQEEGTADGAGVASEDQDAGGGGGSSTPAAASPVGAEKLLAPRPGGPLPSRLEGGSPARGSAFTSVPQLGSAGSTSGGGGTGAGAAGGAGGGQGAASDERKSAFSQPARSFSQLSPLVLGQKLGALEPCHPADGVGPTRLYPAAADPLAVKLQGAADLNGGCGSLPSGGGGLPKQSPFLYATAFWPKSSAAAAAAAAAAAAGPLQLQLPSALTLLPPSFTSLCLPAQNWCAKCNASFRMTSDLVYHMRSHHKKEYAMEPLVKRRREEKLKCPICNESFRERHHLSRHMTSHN
Description: as §1

Chain of PRDM1 (O75626 whole entry): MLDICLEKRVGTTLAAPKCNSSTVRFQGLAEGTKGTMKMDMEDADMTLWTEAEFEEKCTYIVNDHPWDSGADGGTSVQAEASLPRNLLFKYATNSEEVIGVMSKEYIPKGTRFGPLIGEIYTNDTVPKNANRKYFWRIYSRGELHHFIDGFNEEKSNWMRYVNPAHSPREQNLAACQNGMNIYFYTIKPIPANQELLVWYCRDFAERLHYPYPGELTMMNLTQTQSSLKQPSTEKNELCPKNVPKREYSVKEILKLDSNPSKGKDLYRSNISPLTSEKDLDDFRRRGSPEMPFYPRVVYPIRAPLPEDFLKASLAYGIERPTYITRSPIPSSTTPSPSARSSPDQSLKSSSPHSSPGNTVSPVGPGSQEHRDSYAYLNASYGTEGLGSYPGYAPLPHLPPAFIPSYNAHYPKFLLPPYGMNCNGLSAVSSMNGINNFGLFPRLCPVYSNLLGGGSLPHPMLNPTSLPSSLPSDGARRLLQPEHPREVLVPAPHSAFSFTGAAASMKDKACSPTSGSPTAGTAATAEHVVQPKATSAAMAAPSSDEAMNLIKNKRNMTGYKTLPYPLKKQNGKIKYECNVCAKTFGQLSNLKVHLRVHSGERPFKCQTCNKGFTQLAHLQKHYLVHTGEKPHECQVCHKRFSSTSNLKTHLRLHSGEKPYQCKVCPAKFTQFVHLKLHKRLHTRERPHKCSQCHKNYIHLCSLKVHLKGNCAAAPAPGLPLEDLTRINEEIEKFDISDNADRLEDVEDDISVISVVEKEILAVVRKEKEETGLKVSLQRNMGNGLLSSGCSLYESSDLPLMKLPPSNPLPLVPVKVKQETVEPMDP

COc1cc(OC)cc(-c2noc(N3CCN(C)C4(CCN(c5ccnc(C)c5)CC4)C3)n2)c1 [MRK-740]
∆ Tm (°C), DSF (PRDM1): -0.458 °C
∆ Tm (°C), DSF (PRDM10): -0.4 °C
∆ Tm (°C), DSF (PRDM11): -0.536 °C
∆ Tm (°C), DSF (PRDM12): -0.9 °C
∆ Tm (°C), DSF (PRDM13): -1.0 °C
∆ Tm (°C), DSF (PRDM14): -2.3 °C
∆ Tm (°C), DSF (PRDM16): -0.225 °C
∆ Tm (°C), DSF (PRDM2): -1.1 °C
∆ Tm (°C), DSF (PRDM3): -1.3 °C
∆ Tm (°C), DSF (PRDM6): -0.633 °C
∆ Tm (°C), DSF (PRDM8): 1.4 °C
